Experiment: wn = mass fraction of the nth substance listed
Settings: 101 kPa, Liquid, Vibrating tube method

CCOS(=O)(=O)[O-].CCn1cc[n+](C)c1 [1-ethyl-3-methylimidazolium ethyl sulfate] + O=C[C@H](O)[C@@H](O)[C@H](O)[C@H](O)CO
mass density [kg/m3]
Settings | w2 = 0.046 | w2 = 0.059 | w2 = 0.097 | w2 = 0.134 | w2 = 0.154 | w2 = 0.18
278.15 K | 1260.18 | 1263.04 | 1271.43 | 1279.83 | 1284.18 | 1290.02
283.15 K | 1256.74 | 1259.61 | 1268.01 | 1276.43 | 1280.78 | 1286.63
288.15 K | 1253.31 | 1256.19 | 1264.58 | 1273.02 | 1277.37 | 1283.21
293.15 K | 1249.88 | 1252.77 | 1261.19 | 1269.61 | 1273.96 | 1279.8
298.15 K | 1246.45 | 1249.35 | 1257.81 | 1266.25 | 1270.6 | 1276.37
303.15 K | 1243.04 | 1245.93 | 1254.43 | 1262.9 | 1267.26 | 1273
308.15 K | 1239.63 | 1242.53 | 1251.04 | 1259.54 | 1263.91 | 1269.64
313.15 K | 1236.25 | 1239.14 | 1247.66 | 1256.17 | 1260.56 | 1266.26
318.15 K | 1232.88 | 1235.77 | 1244.29 | 1252.82 | 1257.21 | 1262.88
323.15 K | 1229.52 | 1232.42 | 1240.94 | 1249.47 | 1253.87 | 1259.51
328.15 K | 1226.18 | 1229.08 | 1237.6 | 1246.13 | 1250.54 | 1256.14
333.15 K | 1222.86 | 1225.74 | 1234.28 | 1242.81 | 1247.23 | 1252.8
338.15 K | 1219.54 | 1222.46 | 1230.97 | 1239.5 | 1243.93 | 1249.49
343.15 K | 1216.24 | 1219.17 | 1227.66 | 1236.2 | 1240.64 | 1246.21

O=C(CO)[C@@H](O)[C@H](O)[C@H](O)CO [D-fructose] + CCOS(=O)(=O)[O-].CCn1cc[n+](C)c1
mass density [kg/m3]
Settings | w1 = 0.069 | w1 = 0.104 | w1 = 0.171 | w1 = 0.248 | w1 = 0.266 | w1 = 0.307
278.15 K | 1265.07 | 1272.55 | 1287.93 | 1306.03 | 1310.46 | 1320.13
283.15 K | 1261.63 | 1269.11 | 1284.51 | 1302.63 | 1307.07 | 1316.76
288.15 K | 1258.21 | 1265.68 | 1281.07 | 1299.21 | – | 1313.36
293.15 K | 1254.78 | 1262.28 | 1277.63 | 1295.77 | 1300.21 | 1309.93
298.15 K | 1251.35 | 1258.88 | 1274.21 | 1292.29 | 1296.72 | 1306.43
303.15 K | 1247.93 | 1255.47 | 1270.78 | 1288.73 | 1293.13 | 1302.82
308.15 K | 1244.5 | 1252.05 | 1267.3 | 1285.14 | 1289.48 | 1299.08
313.15 K | 1241.08 | 1248.62 | 1263.76 | 1281.5 | 1285.81 | 1295.34
318.15 K | 1237.67 | 1245.19 | 1260.19 | 1277.84 | 1282.13 | 1291.62
323.15 K | 1234.25 | 1241.74 | 1256.61 | 1274.19 | 1278.47 | 1287.95
328.15 K | 1230.83 | 1238.29 | 1253.07 | 1270.58 | 1274.85 | 1284.29
333.15 K | 1227.42 | 1234.86 | 1249.57 | 1267.01 | 1271.26 | 1280.66
338.15 K | 1224.03 | 1231.44 | 1246.09 | 1263.46 | 1267.69 | 1277.05
343.15 K | 1220.66 | 1228.04 | 1242.65 | 1259.93 | 1264.14 | 1273.45

OC[C@@H](O)[C@@H](O)[C@H](O)[C@@H](O)CO [D-sorbitol] + CCOS(=O)(=O)[O-].CCn1cc[n+](C)c1
mass density [kg/m3]
Settings | w1 = 0.037 | w1 = 0.056 | w1 = 0.113 | w1 = 0.16 | w1 = 0.182 | w1 = 0.202
278.15 K | 1255.77 | 1258.66 | 1267.3 | 1274.68 | 1278.11 | 1281.13
283.15 K | 1252.33 | 1255.52 | 1263.85 | 1271.21 | 1274.65 | 1277.67
288.15 K | 1248.88 | 1251.77 | 1260.41 | 1267.76 | 1271.19 | 1274.21
293.15 K | 1245.42 | 1248.33 | 1256.99 | 1264.34 | 1267.76 | 1270.77
298.15 K | 1241.97 | 1244.88 | 1253.56 | 1260.93 | 1264.36 | 1267.36
303.15 K | 1238.54 | 1241.45 | 1250.14 | 1257.52 | 1260.96 | 1263.97
308.15 K | 1235.13 | 1238.04 | 1246.73 | 1254.11 | 1257.55 | 1260.56
313.15 K | 1231.74 | 1234.65 | 1243.33 | 1250.71 | 1254.15 | 1257.16
318.15 K | 1228.36 | 1231.27 | 1239.95 | 1247.32 | 1250.77 | 1253.77
323.15 K | 1225 | 1227.91 | 1236.59 | 1243.95 | 1247.4 | 1250.4
328.15 K | 1221.65 | 1224.56 | 1233.25 | 1240.6 | 1244.04 | 1247.03
333.15 K | 1218.32 | 1221.23 | 1229.92 | 1237.26 | 1240.7 | 1243.69
338.15 K | 1215 | 1217.9 | 1226.61 | 1233.93 | 1237.37 | 1240.35
343.15 K | 1211.69 | 1214.59 | 1223.3 | 1230.62 | 1234.06 | 1237.03

OC[C@@H](O)[C@H](O)[C@@H](O)CO [xylitol] + CCOS(=O)(=O)[O-].CCn1cc[n+](C)c1
mass density [kg/m3]
Settings | w1 = 0.05 | w1 = 0.07 | w1 = 0.098 | w1 = 0.131 | w1 = 0.15 | w1 = 0.169
278.15 K | 1256.32 | 1258.74 | 1261.95 | 1267.09 | 1269.01 | 1271.21
283.15 K | 1252.87 | 1255.31 | 1258.5 | 1263.64 | 1265.56 | 1267.75
288.15 K | 1249.41 | 1251.86 | 1255.06 | 1260.2 | 1262.12 | 1264.31
293.15 K | 1245.95 | 1248.4 | 1251.62 | 1256.76 | 1258.69 | 1260.89
298.15 K | 1242.51 | 1244.96 | 1248.2 | 1253.33 | 1255.25 | 1257.46
303.15 K | 1239.07 | 1241.53 | 1244.78 | 1249.9 | 1251.82 | 1254.03
308.15 K | 1235.66 | 1238.11 | 1241.38 | 1246.49 | 1248.41 | 1250.61
313.15 K | 1232.27 | 1234.72 | 1238.01 | 1243.08 | 1245 | 1247.2
318.15 K | 1228.89 | 1231.34 | 1234.65 | 1239.7 | 1241.62 | 1243.81
323.15 K | 1225.53 | 1227.97 | 1231.3 | 1236.33 | 1238.25 | 1240.44
328.15 K | 1222.18 | 1224.62 | 1227.97 | 1232.97 | 1234.89 | 1237.08
333.15 K | 1218.84 | 1221.29 | 1224.64 | 1229.63 | 1231.55 | 1233.73
338.15 K | 1215.52 | 1217.96 | 1221.33 | 1226.3 | – | 1230.39
343.15 K | 1212.21 | 1214.65 | 1218.02 | 1222.98 | – | 1227.06
